Broadly, the melting point is the temperature, or range, at which the solid turns liquid.

The compound `COc1cccc(OC)c1NC(=O)Cc1c(-c2ccccc2)c2cc(Cl)c(C)cc2oc1=O` [Example 22] returned a melting point of 231 to 232 °C.

With `O=C(Cc1c(-c2ccccc2)c2cc(CN3CCN(c4ncccn4)CC3)c(Cl)cc2oc1=O)Nc1ccc(Cl)cc1C(F)(F)F` [Example 272], the melting point fell in the range of 214 to 217 °C. To `Cc1cc2oc(=O)c(CC(=O)Nc3c(C(C)C)cccc3C(C)C)c(-c3ccccc3)c2cc1C` [Example 31] belongs 252 to 253 °C; to `COc1cccc(OC)c1NC(=O)Cc1c(-c2ccccc2)c2cc(F)c(F)cc2oc1=O` [Example 41], 196 to 198 °C; to `CC(C)c1cccc(C(C)C)c1NC(=O)Cc1c(-c2ccccc2)c2cc(CN(C)C)c(Cl)cc2oc1=O` [Example 72], 301 to 303 °C. To `COc1cccc(OC)c1NC(=O)Cc1c(-c2ccccc2C)c2cc(Cl)c(C)cc2oc1=O` [Example 23] belongs 176 to 177 °C; to `CCOc1cccc(OCC)c1NC(=O)Cc1c(-c2ccccc2)c2cc3c(cc2oc1=O)CCC3` [Example 2], 216 to 219 °C. To `COc1cc2c(-c3ccccc3)c(CC(=O)Nc3ccc(Cl)cc3C(F)(F)F)c(=O)oc2cc1Cl` [Example 178, 2-(7-chloro-6-methoxy-2-oxo-4-phenyl-2H-chromen-3-yl)-N-[4-chloro-2-(trifluoromethyl)phenyl]acetamide] belongs 246 to 247 °C; to `CC(=O)OCc1cc2c(-c3ccccc3)c(CC(=O)Nc3ccc(Cl)cc3C(F)(F)F)c(=O)oc2cc1Cl` [Example 82, [7-chloro-3-{2-(4-chloro-2-trifluoromethylanilino)-2-oxoethyl}-2-oxo-4-phenyl-2H-chromen-6-yl]methyl acetate], 186 to 187 °C; to `CCc1ccccc1NC(=O)Cc1c(-c2ccccc2)c2cc3c(cc2oc1=O)CCC3` [Example 6], 234 to 237 °C. In turn, `COc1cccc(OC)c1NC(=O)Cc1c(-c2ccccc2)c2cc(CN(C)C)c(Cl)cc2oc1=O` [Example 70, 2-[7-chloro-6-{(dimethylamino)methyl}-2-oxo-4-phenyl-2H-chromen-3-yl]-N-(2,6-dimethoxyphenyl)acetamide] gave a melting point of 221 to 223 °C.

In the case of `Cc1cc2c(-c3cccnc3)c(CC(=O)Nc3ccc(F)cc3C(F)(F)F)c(=O)oc2cc1Cl` [Example 330], the melting point was in the range of 213 to 215 °C.

The compound `CCc1cccc(CC)c1NC(=O)Cc1c(-c2ccccc2)c2cc(Cl)c(C)cc2oc1=O` [Example 26] had a melting point of 250 to 251 °C.

Consider `COc1cc(C)cc(OC)c1NC(=O)Cc1c(-c2ccccc2)c2cc3c(cc2oc1=O)CCC3` [Example 8], for which the melting point lay within 237 to 239 °C. To `CCOc1cccc(OCC)c1NC(=O)Cc1c(-c2ccccc2)c2cc(C)c(C)cc2oc1=O` [Example 29] belongs 230 to 231 °C.

For the compound `O=C(Cc1c(-c2ccccc2)c2cc3c(cc2oc1=O)C(=O)CC3)Nc1ccc(F)cc1C(F)(F)F` [Example 88, 2-(2,8-dioxo-4-phenyl-2,6,7,8-tetrahydrocyclopenta[g]chromen-3-yl)-N-[4-fluoro-2-(trifluoromethyl)phenyl]-acetamide], the melting point fell in the range of 180 to 183 °C. The compound `CCOc1cccc(OCC)c1NC(=O)Cc1c(-c2ccccc2)c2cc(Cl)c(C)cc2oc1=O` [Example 24] had a melting point of 235 to 236 °C.

With `O=C(Cc1c(-c2ccccc2)c2cc(F)c(F)cc2oc1=O)Nc1c(OC2CCCC2)cccc1OC1CCCC1` [Example 44], the melting point was 253 to 254 °C. To `CC(C)c1cccc(C(C)C)c1NC(=O)Cc1c(-c2ccccc2)c2cc(CN3CCOCC3)c(Cl)cc2oc1=O` [Example 73] belongs 296 to 298 °C. To `COc1cccc(OC)c1NC(=O)Nc1oc2cc3c(cc2c1-c1ccccc1C)CCC3` [Example 102, N-(2,6-Dimethoxyphenyl)-N′-[3-(2-methylphenyl)-6,7-dihydro-5H-indeno[5,6-b]furan-2-yl]urea] belongs 208 °C (dec.); to `CCOC(=O)C=Cc1cccc(-c2c(CC(=O)Nc3ccc(Cl)cc3C(F)(F)F)c(=O)oc3cc(Cl)c(C)cc23)c1` [Example 336], 118 °C (dec.); to `CC(C)c1cccc(C(C)C)c1NC(=O)Cc1c(-c2ccccc2)c2cc(F)c(F)cc2oc1=O` [Example 42], 255 to 256 °C. To `COc1cccc(OC)c1NC(=O)Cc1c(-c2ccccc2)c2cc(Cl)c(Cl)c(Cl)c2oc1=O` [Example 40] belongs 289 to 291 °C; to `O=C(Cc1c(-c2ccccc2)c2cc3c(cc2oc1=O)C(=O)CC3)Nc1ccc(Cl)cc1C(F)(F)F` [Example 89], 189 to 192 °C; to `COc1cccc(OC)c1NC(=O)Cc1c(-c2ccccc2)c2cc(C)c(Cl)cc2oc1=O` [Example 45], 247 to 249 °C. `CC(C)c1cccc(C(C)C)c1NC(=O)Cc1c(-c2ccccc2)c2cc3c(cc2oc1=O)CCC3` [Example 3] returned a melting point of 261 to 263 °C.

For `COc1cc(O)cc(OC)c1NC(=O)Cc1c(-c2ccccc2)c2cc3c(cc2oc1=O)CCC3` [Example 10], the melting point was 160 °C (dec.). For the compound `O=C(Cc1c(-c2ccccc2)c2cc3c(cc2oc1=O)CCC3)Nc1c(OC2CCCC2)cccc1OC1CCCC1` [Example 14], the melting point was in the range of 224 to 226 °C. To `O=C(Cc1c(-c2ccccc2)c2cc(CO)ccc2oc1=O)Nc1ccc(Cl)cc1C(F)(F)F` [Example 86] belongs 226 to 227 °C; to `O=C(Cc1c(-c2ccccc2)c2cc(CN3CCN(c4ncccn4)CC3)c(Cl)cc2oc1=O)Nc1ccc(F)cc1C(F)(F)F` [Example 273], 203 to 205 °C. Consider `CCN(CC)Cc1cc2c(-c3ccccc3)c(CC(=O)Nc3ccc(Cl)cc3C(F)(F)F)c(=O)oc2cc1Cl` [Example 182], for which the melting point was in the range of 163 to 164 °C. To `COc1cccc(OC)c1NC(=O)Cc1c(-c2ccccc2)c2cc(CN3CCOCC3)c(Cl)cc2oc1=O` [Example 71] belongs 209 to 211 °C; to `COc1cccc(C)c1NC(=O)Cc1c(-c2ccccc2)c2cc3c(cc2oc1=O)CCC3` [Example 5], 232 to 237 °C; to `O=C(Cc1c(-c2ccccc2)c2cc3c(cc2oc1=O)CCC3)Nc1c(F)cccc1C(F)(F)F` [Example 18], 194 to 196 °C. Compound `COc1cccc(OC)c1NC(=O)Cc1c(-c2ccccc2)c2cc3c(cc2oc1=O)CCC3` [Example 1, N-(2,6-dimethoxyphenyl)-2-(2-oxo-4-phenyl-2,6,7,8-tetrahydrocyclopenta[g]chromen-3-yl)acetamide] yielded a melting point of 213 to 215 °C. To `O=C(Cc1c(-c2ccccc2)c2cc3c(cc2oc1=O)CCC3)Nc1c(Cl)cncc1Cl` [Example 15, N-(3,5-dichloro-4-pyridyl)-2-(2-oxo-4-phenyl-2,6,7,8-tetrahydrocyclopenta[g]chromen-3-yl)acetamide] belongs 257 to 259 °C; to `CCOc1cccc(OCC)c1NC(=O)Cc1c(-c2ccccc2)c2cc(Cl)c(Cl)cc2oc1=O` [Example 37], 246 to 247 °C; to `CC(C)c1cccc(C(C)C)c1NC(=O)Cc1c(-c2ccccc2)c2cc(Cl)c(Cl)cc2oc1=O` [Example 39], 289 to 290 °C. For `O=C(Cc1c(-c2ccccc2)c2cc3c(cc2oc1=O)CCC3)Nc1ccc(Cl)cc1OC(F)(F)F` [Example 19], the melting point lay in the range of 189 to 191 °C. Take `Cc1cc2c(-c3cccnc3)c(CC(=O)Nc3ccc(Cl)cc3C(F)(F)F)c(=O)oc2cc1Cl` [Example 329]: the melting point lay in the range of 212 to 215 °C.

`CNCc1cc2c(-c3ccccc3)c(CC(=O)Nc3ccc(Cl)cc3C(F)(F)F)c(=O)oc2cc1Cl` [Example 180, 2-[6-[(methylamino)methyl]-7-chloro-2-oxo-4-phenyl-2H-chromen-3-yl]-N-[4-chloro-2-(trifluoromethyl)phenyl]acetamide]: the melting point lay in the range of 205 to 207 °C. `COc1cc(O)c(NC(=O)Cc2c(-c3ccccc3)c3cc4c(cc3oc2=O)CCC4)c(OC)c1` [Example 11] displayed a melting point of 170 to 172 °C.

`O=C(Cc1c(-c2ccccc2)c2cc(Cl)c(CO)cc2oc1=O)Nc1ccc(Cl)cc1C(F)(F)F` [Example 87] came in with a melting point of 220 to 222 °C. To `O=C(Cc1c(-c2ccccc2)c2cc(CN3CCOCC3)c(Cl)cc2oc1=O)Nc1ccc(Cl)cc1C(F)(F)F` [Example 74, 2-[7-chloro-6-{(morpholin-4-yl)methyl}-2-oxo-4-phenyl-2H-chromen-3-yl]-N-(4-chloro-2-trifluoromethylphenyl)acetamide] belongs 205 to 207 °C. Compound `CC(=O)OCc1cc2c(-c3ccccc3)c(CC(=O)Nc3c(C(C)C)cccc3C(C)C)c(=O)oc2cc1Cl` [Example 81, [7-chloro-3-{2-(2,6-isopropylanilino)-2-oxoethyl}-2-oxo-4-phenyl-2H-chromen-6-yl]]methyl acetate] registered a melting point of 290 to 292 °C. For the compound `CCOC(=O)C=Cc1cccc(-c2c(CC(=O)Nc3ccc(F)cc3C(F)(F)F)c(=O)oc3cc(Cl)c(C)cc23)c1` [Example 337], the melting point is 193 to 196 °C. To `Cc1cc2c(-c3ccccc3)c(CC(=O)Nc3c(C(C)C)cccc3C(C)C)c(=O)oc2cc1Cl` [Example 46] belongs 280 to 282 °C; to `COc1cccc(O)c1NC(=O)Cc1c(-c2ccccc2)c2cc3c(cc2oc1=O)CCC3` [Example 9], 179 to 181 °C; to `O=C(Cc1c(-c2ccccc2)c2cc3c(cc2oc1=O)CCC3)Nc1c(F)cc(F)cc1F` [Example 17], 247 to 249 °C. To `Cc1cc2oc(=O)c(CC(=O)Nc3c(C(C)C)cccc3C(C)C)c(-c3ccccc3Cl)c2cc1Cl` [Example 25] belongs 245 to 246 °C; to `CCc1cccc(CC)c1NC(=O)Cc1c(-c2ccccc2)c2cc(C)c(C)cc2oc1=O` [Example 30], 259 to 260 °C. To `O=C(Cc1c(-c2ccccc2)c2cc(CO)c(Cl)cc2oc1=O)Nc1ccc(Cl)cc1C(F)(F)F` [Example 85] belongs 241 to 243 °C; to `CCc1cccc(CC)c1NC(=O)Cc1c(-c2ccccc2)c2cc3c(cc2oc1=O)CCC3` [Example 4], 279 to 281 °C.

Source of the values: patent US6974806B2, “Lipid-rich plaque inhibitors” (Takeda Pharmaceutical Company Limited, priority 2000, dated 2005).
